# Laboratory results as given in ChEMBL document CHEMBL3885881, “DrugMatrix”.
# Species on record: Rattus norvegicus
# Assay: DrugMatrix - Regimen: Daily Repeat
# Format: toxicity, organism-based, Sprague-Dawley
# Set-up: regimen Daily Repeat, gender Male, age 6-8 weeks
# Conditions: in vivo, po, route oral GAVAGE, vehicle .5 % CMC; for ABSOLUTE BASOPHIL / ABSOLUTE EOSINOPHIL / ABSOLUTE LYMPHOCYTE / ABSOLUTE MONOCYTE / ABSOLUTE SEGMENTED NEUTROPHIL / BASOPHIL / EOSINOPHIL / ERYTHROCYTE COUNT / HEMATOCRIT / HEMOGLOBIN / LEUKOCYTE COUNT / LYMPHOCYTE / MEAN CORPUSCULAR HEMOGLOBIN / MEAN CORPUSCULAR HEMOGLOBIN CONCENTRATION / MEAN CORPUSCULAR VOLUME / MONOCYTE / NEUTROPHIL / NUCLEATED RED BLOOD CELLS / PLATELET COUNT: tissue Blood; for ALANINE AMINOTRANSFERASE / ALBUMIN / ALKALINE PHOSPHATASE / ASPARTATE AMINOTRANSFERASE / BLOOD UREA NITROGEN / CARBON DIOXIDE / CHLORIDE / CHOLESTEROL / CREATINE PHOSPHOKINASE / CREATININE / GLUCOSE / LACTATE DEHYDROGENASE / LIPASE / PHOSPHORUS / POTASSIUM / SODIUM / TOTAL BILIRUBIN / TOTAL PROTEIN / URIC ACID: tissue Plasma
# [1] = 0 mg/kg, 72 h, dose level Control, time 3 day
# [2] = 0 mg/kg, 120 h, dose level Control, time 5 day
# [3] = 16 mg/kg, 72 h, dose level Low, time 3 day
smiles,measurement,setting,value
CCOC(=O)OC(C)OC1=C(C(=O)Nc2ccccn2)N(C)S(=O)(=O)c2ccccc21 (centres undefined) [AMPIROXICAM],ABSOLUTE BASOPHIL,[1],0 CELLS/uL
same,ABSOLUTE EOSINOPHIL,[1],15.17 CELLS/uL
same,ABSOLUTE LYMPHOCYTE,[1],10149.83 CELLS/uL
same,ABSOLUTE MONOCYTE,[1],193.33 CELLS/uL
same,ABSOLUTE SEGMENTED NEUTROPHIL,[1],1575 CELLS/uL
same,BASOPHIL,[1],0%
same,EOSINOPHIL,[1],0.17%
same,ERYTHROCYTE COUNT,[1],5.53 x10E6/uL
same,HEMATOCRIT,[1],34.7%
same,HEMOGLOBIN,[1],12.78 G/DL
same,LEUKOCYTE COUNT,[1],11.93 x10E3/uL
same,LYMPHOCYTE,[1],85.5%
same,MEAN CORPUSCULAR HEMOGLOBIN,[1],23.15 pg
same,MEAN CORPUSCULAR HEMOGLOBIN CONCENTRATION,[1],36.9 G/DL
same,MEAN CORPUSCULAR VOLUME,[1],62.82 fL
same,MONOCYTE,[1],1.5%
same,NEUTROPHIL,[1],12.83%
same,NUCLEATED RED BLOOD CELLS,[1],0.5 /100WBC
same,PLATELET COUNT,[1],994.17 x10E3/uL
same,ALANINE AMINOTRANSFERASE,[1],48.17 u/L
same,ALBUMIN,[1],4.37 G/DL
same,ALKALINE PHOSPHATASE,[1],436.5 u/L
same,ASPARTATE AMINOTRANSFERASE,[1],83.17 u/L
same,BLOOD UREA NITROGEN,[1],14.67 mg/dL
same,CARBON DIOXIDE,[1],30.83 mmol/L
same,CHLORIDE,[1],99.17 MEQ/L
same,CHOLESTEROL,[1],86.33 mg/dL
same,CREATINE PHOSPHOKINASE,[1],243.33 u/L
same,CREATININE,[1],0.25 mg/dL
same,GLUCOSE,[1],158 mg/dL
same,LACTATE DEHYDROGENASE,[1],262.33 u/L
same,LIPASE,[1],11 u/L
same,PHOSPHORUS,[1],12.07 mg/dL
same,POTASSIUM,[1],6.52 MEQ/L
same,SODIUM,[1],142.45 MEQ/L
same,TOTAL BILIRUBIN,[1],0.17 mg/dL
same,TOTAL PROTEIN,[1],6.25 G/DL
same,URIC ACID,[1],1.42 mg/dL
same,ABSOLUTE BASOPHIL,[2],0 CELLS/uL
same,ABSOLUTE EOSINOPHIL,[2],0 CELLS/uL
same,ABSOLUTE LYMPHOCYTE,[2],10076.67 CELLS/uL
same,ABSOLUTE MONOCYTE,[2],124 CELLS/uL
same,ABSOLUTE SEGMENTED NEUTROPHIL,[2],966 CELLS/uL
same,BASOPHIL,[2],0%
same,EOSINOPHIL,[2],0%
same,ERYTHROCYTE COUNT,[2],5.57 x10E6/uL
same,HEMATOCRIT,[2],33.37%
same,HEMOGLOBIN,[2],12.73 G/DL
same,LEUKOCYTE COUNT,[2],11.17 x10E3/uL
same,LYMPHOCYTE,[2],90.33%
same,MEAN CORPUSCULAR HEMOGLOBIN,[2],22.9 pg
same,MEAN CORPUSCULAR HEMOGLOBIN CONCENTRATION,[2],38.18 G/DL
same,MEAN CORPUSCULAR VOLUME,[2],59.97 fL
same,MONOCYTE,[2],1%
same,NEUTROPHIL,[2],8.67%
same,NUCLEATED RED BLOOD CELLS,[2],0 /100WBC
same,PLATELET COUNT,[2],1078 x10E3/uL
same,ALANINE AMINOTRANSFERASE,[2],37.17 u/L
same,ALBUMIN,[2],4.2 G/DL
same,ALKALINE PHOSPHATASE,[2],322.17 u/L
same,ASPARTATE AMINOTRANSFERASE,[2],67.67 u/L
same,BLOOD UREA NITROGEN,[2],14 mg/dL
same,CARBON DIOXIDE,[2],27.67 mmol/L
same,CHLORIDE,[2],102.17 MEQ/L
same,CHOLESTEROL,[2],67.67 mg/dL
same,CREATINE PHOSPHOKINASE,[2],171.83 u/L
same,CREATININE,[2],0.27 mg/dL
same,GLUCOSE,[2],172 mg/dL
same,LACTATE DEHYDROGENASE,[2],85.33 u/L
same,LIPASE,[2],8.67 u/L
same,PHOSPHORUS,[2],12 mg/dL
same,POTASSIUM,[2],6.09 MEQ/L
same,SODIUM,[2],144.82 MEQ/L
same,TOTAL BILIRUBIN,[2],0.13 mg/dL
same,TOTAL PROTEIN,[2],6.07 G/DL
same,URIC ACID,[2],2.13 mg/dL
same,ABSOLUTE BASOPHIL,[3],0 CELLS/uL
same,ABSOLUTE EOSINOPHIL,[3],0 CELLS/uL
same,ABSOLUTE LYMPHOCYTE,[3],13036.33 CELLS/uL
same,ABSOLUTE MONOCYTE,[3],91.33 CELLS/uL
same,ABSOLUTE SEGMENTED NEUTROPHIL,[3],1372.33 CELLS/uL
same,BASOPHIL,[3],0%
same,EOSINOPHIL,[3],0%
same,ERYTHROCYTE COUNT,[3],5.36 x10E6/uL
same,HEMATOCRIT,[3],33.57%
same,HEMOGLOBIN,[3],12.5 G/DL
same,LEUKOCYTE COUNT,[3],14.5 x10E3/uL
same,LYMPHOCYTE,[3],89.33%
same,MEAN CORPUSCULAR HEMOGLOBIN,[3],23.33 pg
same,MEAN CORPUSCULAR HEMOGLOBIN CONCENTRATION,[3],37.23 G/DL
same,MEAN CORPUSCULAR VOLUME,[3],62.67 fL
same,MONOCYTE,[3],0.67%
same,NEUTROPHIL,[3],10%
same,NUCLEATED RED BLOOD CELLS,[3],0 /100WBC
same,PLATELET COUNT,[3],1061.33 x10E3/uL
same,ALANINE AMINOTRANSFERASE,[3],57.33 u/L
same,ALBUMIN,[3],4.3 G/DL
same,ALKALINE PHOSPHATASE,[3],431 u/L
same,ASPARTATE AMINOTRANSFERASE,[3],100.67 u/L
same,BLOOD UREA NITROGEN,[3],12.67 mg/dL
same,CARBON DIOXIDE,[3],32.33 mmol/L
same,CHLORIDE,[3],101.33 MEQ/L
same,CHOLESTEROL,[3],86.33 mg/dL
same,CREATINE PHOSPHOKINASE,[3],214.33 u/L
same,CREATININE,[3],0.25 mg/dL
same,GLUCOSE,[3],155.33 mg/dL
same,LACTATE DEHYDROGENASE,[3],113.33 u/L
same,LIPASE,[3],11.67 u/L
same,PHOSPHORUS,[3],11.83 mg/dL
same,POTASSIUM,[3],6.74 MEQ/L
same,SODIUM,[3],145.43 MEQ/L
same,TOTAL BILIRUBIN,[3],0.13 mg/dL
same,TOTAL PROTEIN,[3],6.13 G/DL
same,URIC ACID,[3],1.73 mg/dL
